The record followed here is ChEMBL document CHEMBL1151630, “Antineoplastic agents, 103. The isolation and structure of hypoestestatins 1 and 2 from the East African Hypoëstes verticillaris” (1984).

The experiment relates to P388. In words: Cytotoxicity against mouse P388 cells. The format is functional.

The compound `COc1ccc2c3c(c4cc(OC)c(OC)cc4c2c1)[C@@H](O)[C@@H]1CCCN1C3` [HYPOESTESTATIN 2] returned an ED50 of 4 ×10⁻⁵ ug/ml.
